Measurements reported in patent publication US20240409560A1, “PYRIMIDINE TRICYCLIC DERIVATIVE AND PHARMACEUTICAL APPLICATION THEREOF” (CHIA TAI TIANQING PHARMACEUTICAL GROUP CO., LTD., priority 2021, published 2024).

Legend:
sGC = biological target: T1, sGC (Homo sapiens, UniProt Q02153); assay: LNCap cell-based cGMP expression assay (HTRF); conditions: minimum effective concentration to stimulate cGMP production (three times greater than the basal value) in lnCap cells; DETA-NO added
T1 construct: endogenous in cells; host or cells: LNCaP cells (14th passage), no transfection described
T1 sequence (Q02153 1-619): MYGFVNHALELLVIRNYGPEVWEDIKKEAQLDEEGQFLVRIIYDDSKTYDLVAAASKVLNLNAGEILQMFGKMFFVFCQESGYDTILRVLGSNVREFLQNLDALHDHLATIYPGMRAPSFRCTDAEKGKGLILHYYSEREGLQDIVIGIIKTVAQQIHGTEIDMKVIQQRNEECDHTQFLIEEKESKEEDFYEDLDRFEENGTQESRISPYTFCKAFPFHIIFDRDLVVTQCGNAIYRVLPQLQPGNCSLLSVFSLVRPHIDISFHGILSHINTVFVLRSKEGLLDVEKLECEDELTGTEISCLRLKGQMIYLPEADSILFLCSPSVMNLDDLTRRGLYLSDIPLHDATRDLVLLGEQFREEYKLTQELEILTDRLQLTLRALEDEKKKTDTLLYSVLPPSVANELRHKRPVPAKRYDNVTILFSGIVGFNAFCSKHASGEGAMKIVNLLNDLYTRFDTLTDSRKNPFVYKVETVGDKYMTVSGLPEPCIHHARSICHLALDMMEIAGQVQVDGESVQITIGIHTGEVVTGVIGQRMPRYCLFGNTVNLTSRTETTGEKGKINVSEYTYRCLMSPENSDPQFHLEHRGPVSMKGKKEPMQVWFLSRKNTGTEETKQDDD
T1 sequence (Q02108 1-690 partner): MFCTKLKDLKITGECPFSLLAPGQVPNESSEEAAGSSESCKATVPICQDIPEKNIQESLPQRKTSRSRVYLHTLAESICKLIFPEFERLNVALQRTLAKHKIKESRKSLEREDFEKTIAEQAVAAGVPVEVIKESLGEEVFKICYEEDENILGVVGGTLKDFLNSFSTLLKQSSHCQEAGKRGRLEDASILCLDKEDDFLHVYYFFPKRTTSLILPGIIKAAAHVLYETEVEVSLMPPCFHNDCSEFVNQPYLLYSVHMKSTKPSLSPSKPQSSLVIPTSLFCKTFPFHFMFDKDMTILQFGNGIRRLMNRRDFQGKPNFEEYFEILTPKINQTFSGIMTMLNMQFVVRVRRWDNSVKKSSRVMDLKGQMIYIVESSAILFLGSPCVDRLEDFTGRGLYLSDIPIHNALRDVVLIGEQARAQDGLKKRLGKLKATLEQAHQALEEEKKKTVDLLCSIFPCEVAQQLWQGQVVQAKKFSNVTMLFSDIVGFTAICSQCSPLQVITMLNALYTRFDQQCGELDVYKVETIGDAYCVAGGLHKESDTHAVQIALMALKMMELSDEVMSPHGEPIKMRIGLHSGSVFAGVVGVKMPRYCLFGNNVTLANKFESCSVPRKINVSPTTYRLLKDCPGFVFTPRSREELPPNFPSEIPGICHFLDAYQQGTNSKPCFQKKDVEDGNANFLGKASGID
Protocol: I. InCap Cell-Based cGMP Expression Assay
• 10 g of BSA was dissolved in 100 mL of double distilled water (ddH2O) to give 10% BSA.
• 10 mg of DETA-NO was weighed out and dissolved in 12.2 mL of double distilled water (ddH2O) to give 5 mM DETA-NO, which was aliquoted and cryopreserved in a freezer at −20° C.
• a) To 1 mL of a lysis buffer was added 50 μL of cGMP-D2 (D2-labeled cyclic guanosine monophosphate), and the mixture was well mixed. • b) To 1 mL of a lysis buffer was added 50 μL of anti-cGMP cryptate (Eu^3+ cryptate-labeled anti-cyclic guanosine monophosphate antibody), and the mixture was well mixed.
• (1) The compounds were diluted to 5 mM with DMSO, 10 μL of each of the compounds was transferred to a shallow well plate for Echo. • (2) The compounds were serially diluted with Echo. Each of the compounds was diluted to obtain 10 concentration gradients, and 50 nL of each compound at each concentration gradient was added to a 384 microwell plate.
• (1) LNCap medium: RPMI1640+10% fetal bovine serum+1% […]. • (2) Phosphate buffered saline, pancreatin, and the medium used in the process of cell passaging were pre-heated in a water bath at 37° C. • (3) The cells (the 14th generation) were taken out of the 37° C. 5% CO2 incubator, and the old medium was pipetted off the culture flask. • (4) 5 mL of phosphate buffered saline was pipetted into the culture flask to rinse the cells, and then the liquid was discarded. • (5) 3 mL of pancreatin was pipetted into the culture flask. After the culture flask was shaken, the liquid was discarded, and the culture flask was placed in the incubator. • (6) After about 2 min, the culture flask was taken out. […] The cell suspension was transferred to a 50 mL centrifuge tube. • (7) 0.7 mL of the cell suspension was pipetted into a counter cup and the cells were counted on a ViCell XR. […]
• (1) cGMP-D2 was transferred to the 384 microwell plate at 5 μL/well using Bravo. […] The mixtures were centrifuged at 1500 rpm for 1 min. • (3) The plate was incubated at room temperature for 1 h. • (4) 665/615 was read using envision. […]

[1] = In vivo pharmacokinetic property study in male SD rats; conditions: Sprague-Dawley, rat, plasma
Protocol: Objective: This study was intended to determine the pharmacokinetic parameters of the compounds in male SD rats.
Sprague Dawley rats (Male, 200-300 g, 7-9 weeks old, Shanghai SLAC)
In the project, 4 male SD rats were used. One group of 2 SD rats were dosed by intravenous injection at 0.3 mg/kg, 0.15 mg/mL and another group of 2 SD rats were orally dosed at 1 mg/kg, 0.2 mg/mL. Plasma samples were collected at 0.083 h (the intravenous injection group only), 0.25 h, 0.5 h, 1 h, 2 h, 4 h, 6 h, 8 h, 12 h, and 24 h after the dosing and then subjected to LC-MS/MS analysis, and data were recorded. Relevant pharmacokinetic parameters were calculated using the Phoenix WinNonlin 6.3 software based on the recorded data.

[2] = Tissue distribution study in rats, oral administration; format: in vivo, Sprague Dawley rats; conditions: male SD rats, po 1 mg/kg; samples at 2, 6, 12 h
Protocol: Objective: This study was intended to test the distribution ratio of the compounds in plasma, heart, cerebrospinal fluid, and brain tissue in the case of oral administration.
Sprague Dawley Rats (Male, 200-300 g, 7-9 Weeks Old, Shanghai SLAC)
In the project, 6 male SD rats were orally dosed at 1 mg/kg, 0.2 mg/mL. Samples of cerebrospinal fluid, brain, heart tissue, and plasma were collected at 2 h, 6 h, and 12 h after the dosing and then subjected to LC-MS/MS analysis, and data were recorded. Relevant pharmacokinetic parameters were calculated using the Phoenix WinNonlin 6.3 software based on the recorded data.

Structure (SMILES)	MEC of the stimulating activity for sGC (sGC) [nM]	clearance ([1]; iv 0.3 mg/kg) [mL/min/kg]	half-life ([1]; iv 0.3 mg/kg) [h]	Vd ([1]; iv 0.3 mg/kg, read-out: Vdss) [L/kg]	bioavailability ([1]; po 1 mg/kg) [%]	half-life ([1]; po 1 mg/kg) [h]	AUC0-last, heart [2]	AUC0-last, plasma [2]
CO[C@@]12C(=O)Nc3nc(-c4nn(CCC(F)(F)C(F)(F)F)c5ncc(F)cc45)nc(c31)NC(=O)C2(C)C [Compound 006]	214	4.58	6.28	2.36	65	6.7	6970 h*nmol/L or h*nmol/kg	1889 h*nmol/L or h*nmol/kg
CO[C@]12C(=O)Nc3nc(-c4nn(CCC(F)(F)C(F)(F)F)c5ncc(F)cc45)nc(c31)NC(=O)C2(C)C [Compound 007]	548	–	–	–	–	–	–	–
CC1(C)C(=O)Nc2nc(-c3nn(Cc4ccccc4F)c4ncc(F)cc34)nc3c2C1(O)C(=O)N3 (stereo not shown) [Compound 016]	19.3	–	–	–	–	–	–	–
